For two compounds, IC50 results are on record in patent US20210317092A1 (BAYER PHARMA AKTIENGESELLSCHAFT, priority 2016, published 2021).

As usually defined, the IC50 is the point on the concentration scale where inhibition reaches its midpoint.

The target of test [1] is T1, human Bradykinin B1 receptor (Homo sapiens, UniProt P46663).
T1 construct: host or cells: CHO-K1
T1 sequence (P46663 1-353): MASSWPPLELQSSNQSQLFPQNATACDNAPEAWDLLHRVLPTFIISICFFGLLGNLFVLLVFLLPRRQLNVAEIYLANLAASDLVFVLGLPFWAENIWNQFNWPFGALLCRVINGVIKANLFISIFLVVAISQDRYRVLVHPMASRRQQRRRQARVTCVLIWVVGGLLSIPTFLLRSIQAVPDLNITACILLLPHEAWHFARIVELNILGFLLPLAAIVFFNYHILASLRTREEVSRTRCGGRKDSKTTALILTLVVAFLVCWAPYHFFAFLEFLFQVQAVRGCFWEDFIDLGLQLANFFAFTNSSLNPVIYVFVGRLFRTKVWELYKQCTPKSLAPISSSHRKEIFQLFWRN
Description: Calcium flux Assay (FLIPR) with recombinant CHO-K1 cells expressing human Bradykinin B1 receptor, in presence (hB1 IC50) or absence (hB1 free IC50) of 0.1% BSA. It is filed as cell-based.

For test [2], the target named is T2, native human Bradykinin B1 receptor (Homo sapiens, UniProt P46663).
T2 construct: which express native human Bradykinin B1 receptor after induction with human IL-10; Coriell Institute; host or cells: IMR-90 human foetal lung fibroblasts, cytokine-induced
T2 sequence (P46663 1-353): T1 sequence (P46663 1-353)
The test can be described thus: Calcium flux Assay (FLIPR) with human fibroblasts expressing Bradykinin B1 receptor (hB1 IMR-90). It is filed as cell-based. The conditions noted are these: IMR-90 human fibroblasts expressing native Bradykinin B1 receptor. A digest of the protocol:
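IMR-90 human foetal lung fibroblasts induced with 0.35 ng/mL […] for 3 h, Fluo-4/AM-loaded, preincubated with compound (8 concentrations, triplicate) for 30 min at 28 °C, then challenged with Lys-(Des-Arg)-bradykinin at EC90. Ca2+ fluorescence was read at 538 nm; full inhibition set by 20 µM Lys-(Des-Arg-Leu)-bradykinin; IC50 derived.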

Setting [3] is: in absence of 0.1% BSA, read-out: hB1 free IC50.
Setting [4] is: in presence of 0.1% BSA, read-out: hB1 IC50.

Where two headings read alike, the source gives them in different places.

With `COc1ccc(-c2ccc(NC(=O)C3(c4cccc(Cl)c4)CC3)cc2-c2nnn[nH]2)cc1OC` [Example 1, 1-(3-Chlorophenyl)-N-[3′,4′-dimethoxy-2-(1H-tetrazol-5-yl)biphenyl-4-yl]cyclopropanecarboxamide], the results for the 50% inhibitory concentration (IC50) in test [1] (setting [3]), in test [1] (setting [4]) and in test [2] were 3.35 nM, 22.6 nM and 14.2 nM, respectively.

On to `CCOc1ccc(-c2ccc(NC(=O)C3(c4cccc(Cl)c4)CC3)cc2-c2nnn[nH]2)cn1` [Example 253, 1-(3-Chlorophenyl)-N-[4-(6-ethoxypyridin-3-yl)-3-(1H-tetrazol-5-yl)phenyl]cyclopropanecarboxamide], for which the IC50 turned out to be 16.1 nM in test [1] (setting [3]), 33.5 nM in test [1] (setting [4]) and 14.9 nM in test [2].
